Reference: PubChem BioAssay AID1963985 (Molecular Pharmacology Branch, DTP, NCI, 2024)

Test system: 252836-082-R-J2-PDC tumor spheroids, viability
Assay: Anticancer human tumor 252836-082-R-J2-PDC patient-derived head and neck squamous cell carcinoma cell line growth inhibition [PI3K]
Settings: spheroids with HUVEC and MSC; for viability, T/C: stronger effect = lower value
From the text: Combinatorial screen of targeted agents with the PI3K inhibitors inavolisib, alpelisib, duvelisib, and copanlisib in multi-cell type tumor spheroids
A high-throughput screen of multi-cell type tumor spheroids was designed to identify active combinations of targeted small molecules and PI3K pathway inhibitors. Complex spheroids include a stromal component modeled by human endothelial cells (HUVEC) and fibroblasts modeled by human mesenchymal stem cells (MSCs). The concentration ranges selected for each drug and investigational agent were based upon clinically achievable concentrations if the clinical Cmax of the agent was known.
Compounds. The drugs and investigational agents: inavolisib (NSC800729), alpelisib (NSC765974), duvelisib (NSC772469), copanlisib (NSC816437), ipatasertib (NSC767898), afuresertib (NSC778305), talazoparib (NSC767125), sapanisertib (NSC764658), selumetinib (NSC741078), tovorafenib (DAY101, NSC766906), vemurafenib (NSC761431), ravoxertinib (NSC781343), sotorasib (NSC818433), MRTX1133 (NSC 836407), abemaciclib (NSC 768073), palbociclib (NSC758247), venetoclax (NSC 766270), SY5609 (NSC837396), enzalutamide (NSC755605), and darolutamide (NSC825331), were obtained from the National Cancer Institute (NCI) Developmental Therapeutics Program Chemical Repository. The FDA-approved anticancer drug set is available from the NCI Developmental Therapeutics Program. […] The stock solutions were prepared in dimethyl sulfoxide (DMSO, Sigma-Aldrich, St. Louis, MO, cat. D2650) at 800-fold the tested concentration and stored at -70 degrees C prior to their use. All drugs and investigational agents were tested over a range starting from a high concentration at or near the clinical Cmax and decreasing in half-log increments. If the clinical Cmax for an agent had not been determined, the highest concentration tested was 10 microM.
Cell Culture. All cells were maintained in an incubator at 37 degrees C and 5% CO2 with 95% humidity. The PDC lines were cultured according to standard operating procedures established by the NCI PDMR (https://pdmr.cancer.gov/sops/default.htm). All PDCs were thawed and cultured in Matrigel-coated flasks prepared with a working solution of 1X Ham's F-12 nutrient mix, without supplementation (Invitrogen, Waltham, MA, cat. 11765054), 100 U/mL penicillin-streptomycin (Invitrogen, cat. 15140122), and 2.5% Matrigel (Corning Inc., Corning, NY, cat. 354248) for the first three passages. The 354836-022-R-J1-PDC, 475296-252-R-J1-PDC, and 997726-040-R-J2-PDC lines were cultured in 6A media, which includes advanced DMEM/F-12 (Thermo Fisher Scientific, cat. 12634028), 10 mM HEPES (Thermo Fisher Scientific, cat. 15630080), 1X GlutaMAX supplement (Thermo Fisher Scientific, cat. 35050061), 0.1 mg/mL primocin (InvivoGen, San Diego, CA, cat. ant-pm-2), 10% defined fetal bovine serum, heat inactivated (HyClone Laboratories Inc., Logan, UT, cat. SH30070.03HI), 50% L-WRN conditioned media (ATCC, cat. CRL-3276), 1.25 mM N-Acetyl-L-cysteine (Sigma-Aldrich, cat. A9165), 10 mM nicotinamide (Sigma-Aldrich, cat. N0636), 1X B-27 supplement (Thermo Fisher Scientific, cat. 17504044), 1X N-2 supplement (Thermo Fisher Scientific, cat. 17502048), and 10 microM Y-27632 dihydrochloride (Tocris Bioscience, Bristol, United Kingdom, cat. 1254). The 624824-186-R-J2-PDC line was cultured in 6C/Colon 1B media, which includes all 6A media components plus 50 ng/mL human EGF recombinant protein (Thermo Fisher Scientific, cat. PHG0311). […]
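Further: spheroids exposed to agents for seven days before readout.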
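Wherever viability, T/C is given: percent of vehicle DMSO control viability so 100% = untreated growth.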

For `Cn1ncnc1[C@H]1c2n[nH]c(=O)c3cc(F)cc(c23)N[C@@H]1c1ccc(F)cc1`, the viability, T/C (compound 0.000316 µM) was 97% [middle of 4 runs], the viability, T/C (compound 0.001 µM) was 95.9% [middle of 4 runs] and the viability, T/C (compound 0.00316 µM) was 89.2% [middle of 4 runs]. For the same compound, the viability, T/C (compound 0.01 µM) was 93.7% [middle of 4 runs], the viability, T/C (compound 0.0316 µM) was 69.4% [middle of 4 runs] and the viability, T/C (compound 0.1 µM) was 55.5% [middle of 4 runs]. The IC50 (curve of compound) was > 100 nM.
`Cn1ncc(Cl)c1-c1cc(C(=O)NC(CN)Cc2cccc(F)c2)sc1Cl` (centres undefined) + Cc1nc(NC(=O)N2CCCC2C(N)=O)sc1-c1ccnc(C(C)(C)C(F)(F)F)c1 showed an IC50 (curve of first compound, second compound 0.0316 µM) of 391 nM, an IC50 (curve of first compound, second compound 0.1 µM) of 657 nM and an IC50 (curve of first compound, second compound 0.316 µM) of 362 nM. The IC50 (curve of first compound, second compound 1 µM) was 52.2 nM, the IC50 (curve of first compound, second compound 3.16 µM) was < 31.6 nM and the IC50 (curve of first compound, second compound 10 µM) was < 31.6 nM. For the same compound, the viability, T/C (second compound 0.0316 µM, first compound 0.0316 µM) was 82.8%, the viability, T/C (second compound 0.0316 µM, first compound 0.1 µM) was 65% and the viability, T/C (second compound 0.0316 µM, first compound 0.316 µM) was 57.8%. It also gave a viability, T/C (second compound 0.0316 µM, first compound 1 µM) of 33.6%, a viability, T/C (second compound 0.0316 µM, first compound 3.16 µM) of 28.4% and a viability, T/C (second compound 0.0316 µM, first compound 10 µM) of 17.6%. It also gave a viability, T/C (second compound 0.1 µM, first compound 0.0316 µM) of 83.9%, a viability, T/C (second compound 0.1 µM, first compound 0.1 µM) of 64% and a viability, T/C (second compound 0.1 µM, first compound 0.316 µM) of 67.5%. It also gave a viability, T/C (second compound 0.1 µM, first compound 1 µM) of 41.8%, a viability, T/C (second compound 0.1 µM, first compound 3.16 µM) of 27.4% and a viability, T/C (second compound 0.1 µM, first compound 10 µM) of 12.2%. For the same compound, the viability, T/C (second compound 0.316 µM, first compound 0.0316 µM) was 67.4%, the viability, T/C (second compound 0.316 µM, first compound 0.1 µM) was 61.3% and the viability, T/C (second compound 0.316 µM, first compound 0.316 µM) was 52.4%. The viability, T/C (second compound 0.316 µM, first compound 1 µM) was 36.9%, the viability, T/C (second compound 0.316 µM, first compound 3.16 µM) was 29.5% and the viability, T/C (second compound 0.316 µM, first compound 10 µM) was 11.1%. It also gave a viability, T/C (second compound 1 µM, first compound 0.0316 µM) of 52%, a viability, T/C (second compound 1 µM, first compound 0.1 µM) of 47.4% and a viability, T/C (second compound 1 µM, first compound 0.316 µM) of 44.6%. For the same compound, the viability, T/C (second compound 1 µM, first compound 1 µM) was 35.8%, the viability, T/C (second compound 1 µM, first compound 3.16 µM) was 28.6% and the viability, T/C (second compound 1 µM, first compound 10 µM) was 12%. The viability, T/C (second compound 3.16 µM, first compound 0.0316 µM) was 44.5%, the viability, T/C (second compound 3.16 µM, first compound 0.1 µM) was 42.1% and the viability, T/C (second compound 3.16 µM, first compound 0.316 µM) was 43.6%. For the same compound, the viability, T/C (second compound 3.16 µM, first compound 1 µM) was 30.7%, the viability, T/C (second compound 3.16 µM, first compound 3.16 µM) was 25.4% and the viability, T/C (second compound 3.16 µM, first compound 10 µM) was 9.67%. For the same compound, the viability, T/C (second compound 10 µM, first compound 0.0316 µM) was 40.4%, the viability, T/C (second compound 10 µM, first compound 0.1 µM) was 36.1% and the viability, T/C (second compound 10 µM, first compound 0.316 µM) was 34.1%. The viability, T/C (second compound 10 µM, first compound 1 µM) was 26.1%, the viability, T/C (second compound 10 µM, first compound 3.16 µM) was 20.9% and the viability, T/C (second compound 10 µM, first compound 10 µM) was 7.53%.
